Patent publication US8147808B2, “Consumer noticeable improvement in wetness protection using solid antiperspirant compositions” (The Procter & Gamble Company, priority 2005, dated 2012)

assay: Odor detection threshold (ODT) determined using a gas chromatograph; details: odor detection threshold of HIA perfume ingredient
Excerpt: HIA perfume ingredients are characterized by their respective boiling point (B.P.), octanol/water partition coefficient (P) and odor detection threshold (“ODT”). The “octanol/water partition coefficient (P)” of a perfume ingredient is the ratio between its equilibrium concentrations in octanol and in water. The boiling points of many perfume ingredients, at standard pressure (760 mm Hg) are given in, e.g., “Perfume and Flavor Chemicals (Aroma Chemicals),” Steffen Arctander, published by the author.
Odor detection thresholds are determined using a gas chromotograph as disclosed in co-pending application, Browne, et al., filed Jun. 9, 2004.

**Q.** Which ODT does the source give for CCC=CCCC=CC=O [2-6-nonadienal] here?
**A.** Its ODT is “≦50 ppb”.

**Q.** Which ODT does the source give for CC(C)=CCCC(C)CCCC(C)C=O (stereo not drawn) [Adoxal] here?
**A.** Its ODT is “≧50 ppb”.

**Q.** For C=CCOC(=O)CCCCCC [Allyl Heptanoate], which ODT is on record?
**A.** The ODT was “≧50 ppb”.

**Q.** Which ODT does the source give for CC/C=C\CCO [Beta Gamma Hexenol] here?
**A.** The ODT was “≧50 ppb”.

**Q.** Which ODT does the source give for CC/C=C\CCOC(C)=O [Cis 3 Hexenyl Acetate] here?
**A.** The ODT was “≧50 ppb”.

**Q.** For C/C=C\C(=O)C1C(C)=CCCC1(C)C (stereo not drawn) [Damarose Alpha], which ODT is on record?
**A.** The ODT was “≦50 ppb”.

**Q.** With CCCCCCCCCC=O [Decyl Aldehyde] as the molecule, how does the ODT read?
**A.** The ODT was “≦50 ppb”.

**Q.** With CCCCCCC(C=O)=Cc1ccccc1 [Hexyl Cinnamic Aldehyde] as the molecule, how does the ODT read?
**A.** The ODT was “≧50 ppb”.

**Q.** For CC(=O)/C=C/C1=C(C)CCCC1(C)C [Ionone Beta], which ODT is on record?
**A.** The ODT was “≦50 ppb”.

**Q.** With CCCCCCCCC/C=C/C=O [Mandarin Aldehyde] as the molecule, how does the ODT read?
**A.** The ODT was “≦50 ppb”.

**Q.** With CC(C)=CCCC(C)C=O (stereo not drawn) [Melonal] as the molecule, how does the ODT read?
**A.** The ODT was “≦50 ppb”.

**Q.** With CCCCCCCCCC(C)C=O (stereo not drawn) [Methyl Nonyl Acetaldehyde] as the molecule, how does the ODT read?
**A.** The ODT was “≦50 ppb”.

**Q.** For CC1=CCC(C(C)CC2CCCC2=O)CC1 (stereo not drawn) [Nectaryl], which ODT is on record?
**A.** The ODT was “≧50 ppb”.

**Q.** With C=CCCC(=O)C1=CCCC(C)(C)C1 [Neobutenone] as the molecule, how does the ODT read?
**A.** The ODT was “≦50 ppb”.

**Q.** For CC(=O)CCc1ccc(O)cc1 [Para Hydroxy Phenyl Butanone], which ODT is on record?
**A.** Its ODT is “≦50 ppb”.

**Q.** For CC1(C)C2CC=C(CCC=O)C1C2 (stereo not drawn) [Pino Acetaldehyde], which ODT is on record?
**A.** The ODT was “≦50 ppb”.

**Q.** With CCC/C=C/C=O [Trans-2 Hexenal] as the molecule, how does the ODT read?
**A.** Its ODT is “≦50 ppb”.

**Q.** With CCCCCCCC1CCC(=O)O1 (stereo not drawn) [Undecalactone] as the molecule, how does the ODT read?
**A.** The ODT was “≧50 ppb”.

**Q.** For CC(=O)OC1CCCCC1C(C)(C)C (stereo not drawn) [Verdox], which ODT is on record?
**A.** The ODT was “≧50 ppb”.

**Q.** For C=C(C)[C@H]1CC=C(C)CC1 [d-limonene], which ODT is on record?
**A.** Its ODT is “≧50 ppb”.

**Q.** With CCOC(=O)C(C)CC (stereo not drawn) [ethyl-2-methyl butyrate] as the molecule, how does the ODT read?
**A.** The ODT was “≦50 ppb”.

**Q.** For CCCCCCC=CC(=O)OC [methyl-2-nonenoate], which ODT is on record?
**A.** The ODT was “≦50 ppb”.

**Q.** Which ODT does the source give for Citralva Plus here?
**A.** Its ODT is “≦50 ppb”.

**Q.** Which ODT does the source give for Natural Sinensal here?
**A.** The ODT was “≦50 ppb”.
